According to article PMC5424463, “A strategy based on nucleotide specificity leads to a subfamily-selective and cell-active inhibitor of N ^6-methyladenosine demethylase FTO” (Chemical Science, 2014):
“And” between values parts separate entries of the source, which are not always exact repeats. Equal entries are not always repeated.

Experiments:
[1] = target: T1, AlkB (Escherichia coli, UniProt P05050); test: HPLC-based inhibition assay for AlkB, m1A-ssDNA substrate; type: biochemical
T1 construct: made in house; host or cells: E. coli BL21 (DE3) Rosetta T1R
Method: (§1) HPLC-based inhibition assays for AlkB and ALKBH2
(§2) The assay was modified from previously reported method.[18] A 15-mer m1A-ssDNA substrate with the sequence 5’-AAAGCAG(m1A)ATTCGAA-3 ’ (Yale University, W.M.
(§3) Keck Foundation Biotechnology Resource Laboratory) was used in this inhibition assay. The assay was performed in triplicate for each inhibitor, in a final reaction volume of 25 µL.
(§4) Reaction consisted of AlkB (1 µM) or ALKBH2 (2 µM), 2OG (50 µM), (NH4)2Fe(SO4)2·6H2O (50 µM), L-ascorbate (2 mM), m1A-ssDNA substrate (10 µM), in 50 mM HEPES buffer, pH 7.5, and inhibitor at various concentrations (final DMSO concentration not more than 1% v/v of assay mix). The reaction was incubated at 4°C for 10 min, before analysis on a bio-inert HPLC system. The m1A-ssDNA substrate and the corresponding demethylated product were separated using a Dionex DNAPac PA200 anion-exchange column (8 µm, […]) with a gradient of 98% solvent A (50 mM sodium citrate buffer, pH 5.5) to 65% solvent B (50 mM sodium citrate buffer, pH 5.5 with 1.25 M sodium chloride) over 18 min, at a flow rate of 1 mL/min at 40°C. The UV detection wavelength was set at 266 nm. The percentage inhibition was estimated based on the peak areas of the m1A-ssDNA substrate and the corresponding demethylated product. For IC50 determination, eight different concentrations of inhibitors were used (0, 1, 3, 10, 30, 100, 300, […]
(§5) different inhibitor concentrations, using nonlinear regression, with normalized dose-response fit on GraphPad Prism 6.0™. […]

[2] = target: T2, ALKBH2 (Homo sapiens, UniProt Q6NS38); test: HPLC-based inhibition assay for ALKBH2, m1A-ssDNA substrate; type: biochemical
T2 construct: made in house; host or cells: E. coli BL21 (DE3)
T2 sequence (Q6NS38 56-258): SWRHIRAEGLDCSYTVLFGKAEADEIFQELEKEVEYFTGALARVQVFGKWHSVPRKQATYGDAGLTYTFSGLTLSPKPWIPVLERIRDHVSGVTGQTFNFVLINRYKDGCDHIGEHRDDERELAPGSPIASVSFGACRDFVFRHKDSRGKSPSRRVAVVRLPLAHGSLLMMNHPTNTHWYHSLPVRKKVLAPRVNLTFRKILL
Method: as §1, §2, §3, §4, §5

[3] = target: T3, ALKBH3 (Homo sapiens, UniProt Q96Q83); test: MALDI-based inhibition assay for ALKBH3; type: biochemical; conditions: 8-mer ssDNA substrate
T3 construct: Human ALKBH3 (encompassing residues 1- 286); purchased ProSpec-Tany Technogene Ltd, Israel
T3 sequence (Q96Q83 1-286): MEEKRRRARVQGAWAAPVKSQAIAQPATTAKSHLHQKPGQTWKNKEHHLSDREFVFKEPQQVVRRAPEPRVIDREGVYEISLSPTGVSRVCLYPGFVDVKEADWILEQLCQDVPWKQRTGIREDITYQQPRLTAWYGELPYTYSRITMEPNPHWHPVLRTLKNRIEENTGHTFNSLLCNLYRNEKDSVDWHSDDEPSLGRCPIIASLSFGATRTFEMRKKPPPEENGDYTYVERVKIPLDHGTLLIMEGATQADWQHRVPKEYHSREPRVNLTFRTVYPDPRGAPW
Method: MALDI-based inhibition assays for ALKBH3
An 8-mer m1A-ssDNA substrate with the sequence 5’-CAG(m1A)ATTC-3’ (Yale University, W.M. Keck Foundation Biotechnology Resource Laboratory) was used in this inhibition assay. The assay was performed in triplicate for each inhibitor, in a final reaction volume of 25 µL. Reaction consisted of ALKBH3 (2 µM), 2OG (150 µM), (NH4)2Fe(SO4)2·6H2O (150 µM), L-ascorbate (2 mM), […] (100 µM), in 50 mM HEPES buffer, pH 7.5, and inhibitor at various concentrations (final DMSO concentration not more than 1% v/v of assay mix). The reaction was incubated at room temperature for 30 min, before 1:1 quenching with 20% v/v formic acid. 1 uL of the diluted assay mixture was then mixed with 1 uL of 3-hydroxpicolinic acid (3-HPA, the MALDI-TOF-MS matrix, Sigma-Aldrich) and spotted onto the MALDI-TOF-MS plate before analysis. The 3-HPA matrix was prepared by mixing 9 parts of 50 mg/mL 3-hydroxpicolinic acid in 50% MeCN/Milli-Q H2O with 1 part of 50 mg/mL ammonium citrate in Milli-Q H2O.
The percentage inhibition was estimated based on the relative intensities of the methylated substrate and the demethylated product observed in the mass spectra. […]
Reaction consisted of PHD2 (4 µM), 2OG (150 µM),

[4] = target: T3, ALKBH3; test: Differential scanning fluorimetry (DSF)-based binding assay, ALKBH3; conditions: DSF, 100 μM compound, 2 μM protein, 50 μM MnCl2; read-out: Tm shift (ALKBH3)
Method: (§6) Superdex-200 column (GE Healthcare) pre-equilibrated with 20 mM HEPES, pH 7.5, 300 mM NaCl, 10% (v/v) glycerol, 0.5 mM TCEP. […]
(§7) Differential scanning fluorimetry (DSF)-based binding assay
(§8) DSF-based binding assay was performed using a MiniOpticon™ Real-Time PCR Detection System (Bio-Rad), monitoring protein unfolding using SYPRO orange (Invitrogen) according to the reported method.[16] FAM (492 nm) and ROX (610 nm) filters were used for excitation and emission respectively. Reaction mixes contained 2 μM protein, 50 μM MnCl2, 100 μM compounds, 5x SYPRO orange in a final volume of 50 μl. Reagents were prepared in 50mM HEPES buffer, pH 7.5 except metals, which were dissolved as 100 mM stocks in 20 mM HCl, then further diluted in MilliQ water. Compounds tested were prepared in 100% DMSO and added such that the final concentration of DMSO was not more than 1% v/v of assay […]
(§9) mix. Fluorescence readings were taken every 1°C in the range 25-95°C, with the temperature increased linearly by 1°C min -1. The software provided was used to perform global minimum subtraction. The inflection point, representing Tm, was calculated by fitting the Boltzmann equation to the sigmoidal curves obtained; data were processed using GraphPad Prism 6.0™.
(§10) The Tm shift caused by the addition of small molecules/ fragments was determined by subtraction of the “reference” Tm (protein incubated with metal and 1% v/v DMSO) from the Tm obtained in the presence of the compound. The assay was performed in triplicate for each inhibitor, with standard deviations typically < 1°C. […]

[5] = target: T1, AlkB; test: Differential scanning fluorimetry (DSF)-based binding assay, AlkB; conditions: 100 μM compound, 2 μM protein, 50 μM MnCl2, read-out: Tm shift (AlkB)
Method: as §6, §7, §8, §9, §10

T1 sequence (P05050 12-216): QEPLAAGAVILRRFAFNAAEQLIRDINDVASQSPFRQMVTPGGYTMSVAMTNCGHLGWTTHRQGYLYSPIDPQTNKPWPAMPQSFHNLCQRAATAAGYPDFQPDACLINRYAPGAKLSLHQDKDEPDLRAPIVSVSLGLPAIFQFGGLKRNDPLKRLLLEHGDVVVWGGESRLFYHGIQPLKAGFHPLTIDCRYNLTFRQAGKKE

O=C(O)/C=C/C(=O)NNC(=O)c1cnccc1Cc1ccccc1 [Compound 12]
IC50 [1]: 33.5 µM | IC50 [2]: 25.9 µM | IC50 [3]: 66.2 µM | ΔTm at 100 µM [4]: 3.2 °C | ΔTm at 100 µM [5]: 4.5 °C

O=C(O)/C=C/C(=O)NNC(=O)c1cccnc1 [Compound 21]
IC50 [1]: 169 µM | IC50 [2]: 152 µM and > 100 µM | IC50 [3]: 115 µM | ΔTm at 100 µM [4]: 2.5 °C | ΔTm at 100 µM [5]: 1.8 °C

O=C(O)C=CC(=O)NNC(=O)c1cc(Cc2ccccc2)ccn1 [Compound 22]
IC50 [1]: 67.1 µM | IC50 [2]: 39.9 µM | IC50 [3]: 53.5 µM | ΔTm at 100 µM [4]: 3.5 °C | ΔTm at 100 µM [5]: 3.2 °C

O=C(O)/C=C/C(=O)NNC(=O)c1ccccn1 [Compound 23]
IC50 [1]: 181 µM | IC50 [2]: 127 µM | IC50 [3]: 168 µM | ΔTm at 100 µM [4]: 2 °C | ΔTm at 100 µM [5]: 1.5 °C
